Experimental data published in EPA's ToxRefDB 2.

Tests used:
rat [1] = details: Multigenerational reproductive toxicity study, sprague dawley, Oral, Feed, dose end: 2 generation
dog [2] = details: Subchronic oral toxicity in nonrodent, beagle, Feed, dose end: 6 month, group: systemic
rat [3] = details: Subchronic oral toxicity in rodents, wistar, Feed, dose end: 90 day, group: systemic, systemic / pathology gross / adrenal gland / discolored + systemic / pathology gross / adrenal gland / enlarged + systemic / pathology …
rat [4] = details: Multigenerational reproductive toxicity study, wistar, Oral, Feed, dose end: 2 generation
rabbit [5] = details: Prenatal developmental toxicity study; himalayan; Oral; Gavage/Intubation; dose end: 28 GD; group: maternal; systemic / in life observation / food consumption / food consumption + systemic / organ weight / adrenal gland / absolute + systemic / organ…
rat [6] = details: Chronic toxicity; wistar; Oral; Feed; dose end: 104 week; group: systemic; systemic / pathology microscopic / eye / degeneration + systemic / pathology microscopic / prostate / fibrosis + systemic / pathology …
mouse = details: Carcinogenicity, other, Oral, Feed, dose end: 18 month, group: systemic
rat [7] = details: Prenatal developmental toxicity study, wistar, Dermal, Topical, dose end: 19 GD
rat [8] = details: Sub-acute repeat dose toxicity; wistar; Oral; Gavage/Intubation; dose end: 14 day; group: systemic; systemic / hematology / [other] / [other]
rat [9] = details: Sub-acute repeat dose toxicity, Oral, Gavage/Intubation, dose end: 14 day, group: systemic
dog [10] = details: Sub-acute repeat dose toxicity, beagle, Oral, Gavage/Intubation, dose end: 14 day, group: systemic
primate = details: Subchronic oral toxicity in nonrodent, Gavage/Intubation, dose end: 91 day, group: systemic, systemic / pathology microscopic / intestine small / erosion
rabbit [11] = details: Prenatal developmental toxicity study; Oral; Gavage/Intubation; dose end: 19 GD; group: maternal; reproductive / reproductive performance / aborted / aborted + reproductive / reproductive performance / resorptions / resorptions + systemic…
rat [12] = details: Prenatal developmental toxicity study, Oral, Gavage/Intubation, dose end: 18 GD
rat [13] = details: Sub-acute repeat dose toxicity, Oral, Gavage/Intubation, dose end: 12 day
dog [14] = details: Subchronic oral toxicity in nonrodent, beagle, Gavage/Intubation, dose end: 91 day, group: systemic
rat [15] = details: Fertility (Segment I), Oral, Gavage/Intubation, dose end: 1 generation, group: parental
rat [16] = details: Chronic toxicity, Oral, Gavage/Intubation, dose end: 182 day, group: systemic
[17] = group: offspring, developmental / developmental landmark / nipple development / nipple development + developmental / developmental landmark / preputial …
[18] = group: parental, systemic / organ weight / epididymis / absolute + systemic / organ weight / epididymis / relative to body weight + systemic / organ weight…
[19] = group: reproductive, reproductive / reproductive performance / fertility / fertility
[20] = systemic / organ weight / adrenal gland / absolute + systemic / organ weight / adrenal gland / relative to body weight + systemic / clinical…
[21] = group: offspring, systemic / organ weight / adrenal gland / absolute + systemic / organ weight / liver / absolute
[22] = group: parental, systemic / organ weight / epididymis / absolute
[23] = group: reproductive, reproductive / reproductive performance / fertility / fertility + reproductive / offspring survival early / birth index / live birth index
[24] = systemic / organ weight / adrenal gland / relative to body weight + systemic / organ weight / brain / relative to body weight + systemic / …
[25] = group: developmental, developmental / developmental landmark / anogenital distance (agd) / anogenital distance (agd)
[26] = group: developmental, developmental / developmental landmark / anogenital distance (agd) / anogenital distance (agd) + developmental / developmental malformation…
[27] = group: maternal, systemic / organ weight / adrenal gland / absolute
[28] = group: maternal, systemic / organ weight / adrenal gland / absolute + systemic / organ weight / liver / absolute
[29] = systemic / clinical chemistry / [other] / [other]
[30] = systemic / hematology / leukocyte (wbc) count differential / leukocyte (wbc) + systemic / in life observation / body weight / body weight …
[31] = systemic / clinical chemistry / [other] / [other] + systemic / clinical chemistry / creatinine / creatinine + systemic / clinical chemistry…
[32] = systemic / in life observation / clinical signs / abnormal feces + systemic / in life observation / food consumption / food consumption + …
[33] = group: developmental, developmental / developmental malformation / bone / delayed ossification + developmental / developmental malformation / bone / [other] + …
[34] = group: maternal, systemic / in life observation / body weight / body weight gain + systemic / in life observation / clinical signs / abnormal feces + …
[35] = group: maternal, reproductive / offspring survival early / litter size / litter size + reproductive / reproductive performance / postimplantation loss / …
[36] = group: systemic, systemic / in life observation / body weight / body weight gain + systemic / in life observation / clinical signs / emaciation + systemic / …
[37] = systemic / clinical chemistry / alkaline phosphatase (alp/alk) / alkaline phosphatase (alp/alk) + systemic / clinical chemistry / protein / …
[38] = systemic / pathology microscopic / liver / hypertrophy + systemic / pathology microscopic / brain / infiltration cellular + systemic / …
[39] = systemic / in life observation / body weight / body weight + systemic / in life observation / food consumption / food consumption
[40] = systemic / clinical chemistry / albumin / albumin + systemic / clinical chemistry / calcium / calcium + systemic / clinical chemistry / …
[41] = systemic / organ weight / kidney / absolute + systemic / pathology microscopic / intestine small / erosion

C=CC1(C)OC(=O)N(c2cc(Cl)cc(Cl)c2)C1=O (stereo not drawn) [Vinclozolin]
LEL (rat [1]; [17]): 14.8 mg/kg/day | LOAEL (rat [1]; [17]): 14.8 mg/kg/day | NEL (rat [1]; [17]): 3 mg/kg/day | NOAEL (rat [1]; [17]): 3 mg/kg/day | LOAEL (rat [1]; [18]): 14.8 mg/kg/day | NOAEL (rat [1]; [18]): 3 mg/kg/day | LEL (rat [1]; group: parental, systemic / pathology microscopic / adrenal gland / [other] + systemic / pathology microscopic / liver / hypertrophy): 11.5 mg/kg/day | NEL (rat [1]; group: parental, systemic / pathology microscopic / adrenal gland / [other] + systemic / pathology microscopic / liver / hypertrophy + systemic / clinical …): 2.34 mg/kg/day | LEL (rat [1]; [19]): 74.7 mg/kg/day | LOAEL (rat [1]; [19]): > 74.7 mg/kg/day | NEL (rat [1]; [19]): 14.8 mg/kg/day | NOAEL (rat [1]; [19]): ≥ 74.7 mg/kg/day | LOAEL (dog [2]; systemic / organ weight / adrenal gland / absolute + systemic / organ weight / adrenal gland / relative to body weight): 7.5 mg/kg/day | NEL (dog [2]; [20]): 2.5 mg/kg/day | NOAEL (dog [2]; [20]): 2.5 mg/kg/day | LEL (dog [2]; systemic / organ weight / adrenal gland / absolute + systemic / organ weight / adrenal gland / relative to body weight + systemic / organ …): 7.5 mg/kg/day | LEL (rat [3]): 24 mg/kg/day | LOAEL (rat [3]): 24 mg/kg/day | NEL (rat [3]): 4.4 mg/kg/day | NOAEL (rat [3]): 4.4 mg/kg/day | LEL (rat [4]; [21]): 30 mg/kg/day | LOAEL (rat [4]; [21]): 30 mg/kg/day | NEL (rat [4]; [21]): 4.9 mg/kg/day | NOAEL (rat [4]; [21]): 4.9 mg/kg/day | LEL (rat [4]; [22]): 4.9 mg/kg/day | LOAEL (rat [4]; [22]): 4.9 mg/kg/day | NEL (rat [4]; [22]): < 4.9 mg/kg/day | NOAEL (rat [4]; [22]): < 4.9 mg/kg/day | NEL (rat [4]; [19]): 101 mg/kg/day | LEL (rat [4]; [23]): 290 mg/kg/day | LOAEL (rat [4]; [23]): > 290 mg/kg/day | NOAEL (rat [4]; [23]): ≥ 290 mg/kg/day | LEL (rabbit [5]): 200 mg/kg/day | LOAEL (rabbit [5]): 200 mg/kg/day | NEL (rabbit [5]): 50 mg/kg/day | NOAEL (rabbit [5]): 50 mg/kg/day | LEL (rat [6]): 7 mg/kg/day | LOAEL (rat [6]): 7 mg/kg/day | NEL (rat [6]): < 7 mg/kg/day | NOAEL (rat [6]): < 7 mg/kg/day | LOAEL (mouse; systemic / in life observation / body weight / body weight gain): 20.6 mg/kg/day | LEL (mouse; [24]): 2.1 mg/kg/day | NEL (mouse; [24]): < 2.1 mg/kg/day | NOAEL (mouse; [24]): 2.1 mg/kg/day | LEL (rat [7]; [25]): 180 mg/kg/day | LOAEL (rat [7]; [25]): 180 mg/kg/day | NEL (rat [7]; [26]): 60 mg/kg/day | NOAEL (rat [7]; [26]): 60 mg/kg/day | LEL (rat [7]; [27]): 180 mg/kg/day | LOAEL (rat [7]; [27]): 180 mg/kg/day | NEL (rat [7]; [28]): 60 mg/kg/day | NOAEL (rat [7]; [28]): 60 mg/kg/day

CC(C)(C)c1cc(/C=C2\SC(N)=NC2=O)cc(C(C)(C)C)c1O.CS(=O)(=O)O [Darbufelone mesylate]
LEL (rat [8]): 1 mg/kg/day | LOAEL (rat [8]): > 75 mg/kg/day | NEL (rat [8]): < 1 mg/kg/day | NOAEL (rat [8]): ≥ 75 mg/kg/day | LEL (rat [9]; [29]): 10 mg/kg/day | NEL (rat [9]; [29]): < 10 mg/kg/day | LOAEL (rat [9]; [30]): > 1000 mg/kg/day | NOAEL (rat [9]; [30]): ≥ 1000 mg/kg/day | LOAEL (dog [10]; [31]): > 200 mg/kg/day | NOAEL (dog [10]; [31]): ≥ 200 mg/kg/day | LEL (dog [10]; [32]): 10 mg/kg/day | NEL (dog [10]; [32]): < 10 mg/kg/day | LEL (primate): 10 mg/kg/day | LOAEL (primate): > 50 mg/kg/day | NEL (primate): 5 mg/kg/day | NOAEL (primate): ≥ 50 mg/kg/day | LOAEL (rabbit [11]): > 35 mg/kg/day | NOAEL (rabbit [11]): ≥ 35 mg/kg/day | LOAEL (rat [12]; [33]): > 75 mg/kg/day | NOAEL (rat [12]; [33]): ≥ 75 mg/kg/day | LOAEL (rat [12]; [34]): > 75 mg/kg/day | NOAEL (rat [12]; [34]): ≥ 75 mg/kg/day | LEL (rat [13]; [35]): 75 mg/kg/day | LOAEL (rat [13]; [35]): > 75 mg/kg/day | NEL (rat [13]; [35]): 50 mg/kg/day | NOAEL (rat [13]; [35]): ≥ 75 mg/kg/day | LOAEL (rat [13]; [36]): > 75 mg/kg/day | NEL (rat [13]; [36]): 10 mg/kg/day | NOAEL (rat [13]; [36]): ≥ 75 mg/kg/day | LOAEL (dog [14]; [37]): > 10 mg/kg/day | NOAEL (dog [14]; [37]): ≥ 10 mg/kg/day | LEL (dog [14]; [38]): 2 mg/kg/day | NEL (dog [14]; [38]): < 2 mg/kg/day | LEL (rat [15]; systemic / in life observation / body weight / body weight): 75 mg/kg/day | LOAEL (rat [15]; [39]): > 100 mg/kg/day | NEL (rat [15]; [39]): 35 mg/kg/day | NOAEL (rat [15]; [39]): ≥ 100 mg/kg/day | LOAEL (rat [16]; [40]): > 75 mg/kg/day | NOAEL (rat [16]; [40]): ≥ 75 mg/kg/day | LEL (rat [16]; [41]): 5 mg/kg/day | NEL (rat [16]; [41]): < 5 mg/kg/day
